Data on 3 compounds can be found in patent US11787778B2, “Bi-functional compounds and methods for targeted ubiquitination of androgen receptor” (MONTELINO THERAPEUTICS, INC., priority 2019, dated 2023).

Where two headings read alike, the source gives them in different places. Where a SMILES comes first, the peptide text is derived from it. [ ]: non-standard residue; d: D form. The star is where a group is joined. X1 = O=C(COc1c(-c2csc(N3CCOCC3)n2)ccc(F)c1F)NCCCCCCN*; X2 = Fc1ccc(-c2csc(N3CCOCC3)n2)c(OCCOCCOCCN*)c1F; Dip = N[C@H](C(=O)O)C(c1ccccc1)c1ccccc1; Chg = N[C@H](C(=O)O)C1CCCCC1; NMeA = CN[C@@H](C)C(=O)O Where only a bound is given, the exact number is not on record here.

The test system of this assay is 22Rv1. In words: 22Rv1 cell count decrease. Type of assay: cell-based. The conditions noted are these: Homo sapiens. How it is done: The human prostate cancer cell line, 22Rv1 has been reported to express a high level of AR-V7. […] Standard culture media was RPMI-1640 supplemented with 10% fetal bovine serum. The test compound initially was dissolved in DMSO at 50 mM. This stock solution was then diluted as needed for the indicated concentrations. […]

Where [1] appears, read: read-out: 22Rv1 cell count decrease at 10 uM for 48 hours, 22Rv1 cells, 10 uM, read-out: 22Rv1 cell count decrease at 10 uM.

For the compound `CN[C@@H](C)C(=O)N[C@H](C(=O)N1CCC[C@H]1C(=O)N[C@H](C(=O)NCCOCCOCCOc1c(-c2csc(N3CCOCC3)n2)ccc(F)c1F)C(c1ccccc1)c1ccccc1)C1CCCCC1` [Example 24, (S)-1-((S)-2-cyclohexyl-2-((S)-2-(methylamino)propanamido)acetyl)-N-((S)-1-((2-(2-(2-(2,3-difluoro-6-(2-morpholinothiazol-4-yl)phenoxy)ethoxy)ethoxy)ethyl)amino)-1-oxo-3,3-diphenylpropan-2-yl)pyrrolidine-2-carboxamide] (H-[NMeA][Chg]P[Dip]-X2), under “22Rv1, read-out: 22Rv1 cell count decrease at 10 uM for 48 hours”, the inhibition at 10 µM is more than 50%.

In the case of `CN[C@@H](C)C(=O)N[C@H](C(=O)N1CCC[C@H]1C(=O)N[C@H](C(=O)NCCCCCCNC(=O)COc1c(-c2csc(N3CCOCC3)n2)ccc(F)c1F)C(c1ccccc1)c1ccccc1)C1CCCCC1` [Example 26, (S)-1-((S)-2-cyclohexyl-2-((S)-2-(methylamino)propanamido)acetyl)-N-((S)-1-((6-(2-(2,3-difluoro-6-(2-morpholinothiazol-4-yl)phenoxy)acetamido)hexyl)amino)-1-oxo-3,3-diphenylpropan-2-yl)pyrrolidine-2-carboxamide] (H-[NMeA][Chg]P[Dip]-X1), the inhibition at 10 µM under setting [1] is more than 50%.

Take `O=C1CCC(N2C(=O)c3cccc(NCCCCCCNC(=O)c4cn(-c5csc(N6CCOCC6)n5)cn4)c3C2=O)C(=O)N1` (stereo not drawn) [Example 32, N-(6-((2-(2,6-dioxopiperidin-3-yl)-1,3-dioxoisoindolin-4-yl)amino)hexyl)-1-(2-morpholinothiazol-4-yl)-1H-imidazole-4-carboxamide]: the inhibition at 10 µM under setting [1] lay within 0 to 20%.
